The values below come from article PMC10043283, “Neuraminidase 1 promotes renal fibrosis development in male mice” (Nature Communications, 2023).

Molecules are shown by their SMILES. pKd: −log10 of the molar value. Read-outs that look alike come from different tables or passages of the source.

For the assay, the target named is T1, NEU1 (neuraminidase 1) (Homo sapiens, UniProt Q99519).
T1 construct: recombinant human NEU1 protein
Kind of assay: SPR (Biacore T200, NEU1 immobilized on CM5 chip). The assay is classed as binding.

Take `O=C(/C=C/c1ccc(O)c2c1[C@H](C(=O)O[C@H](Cc1ccc(O)c(O)c1)C(=O)O)[C@@H](c1ccc(O)c(O)c1)O2)O[C@H](Cc1ccc(O)c(O)c1)C(=O)O` [SaB, salvianolic acid B]: for the setting “read-out: Kd”, the pKd was 7.67.

As to `O=C(/C=C/c1ccc(O)c(O)c1/C=C/c1ccc(O)c(O)c1)O[C@H](Cc1ccc(O)c(O)c1)C(=O)O` [SaA, salvianolic acid A], the pKd (read-out: Kd) is 4.28. Regarding `O=C(/C=C/c1ccc(O)c(O)c1)O[C@H](Cc1ccc(O)c(O)c1)C(=O)O` [rosmarinic acid], the pKd was 6.85.
